Results: article PMC12339378 (Molecular Psychiatry, 2025)

Legend:
[1] = system: HCN channel Ih currents in VTA DA neurons; format: cell-based, mice
VTA DA neurons = format: cell-based, mice; conditions: 750 µM local application for 3 min; cell-attached; average
[2] = cited from earlier work

COc1cc2c(cc1OC)CC(=O)N(CCCN(C)C[C@H]1Cc3cc(OC)c(OC)cc31)CC2 [Ivabradine]
percent inhibition of Ih currents in VTA DA neurons [1]: significant inhibition of the Ih current
percent inhibition of firing rate in VTA DA neurons (VTA DA neurons): 61.1%
ability to cross the blood-brain barrier (BBB) [2]: limited abilities to cross the blood-brain barrier

COc1ccc(CCN(C)CCCN2CCc3cc(OC)c(OC)cc3CC2=O)cc1OC [Zatebradine]
percent inhibition of Ih currents in VTA DA neurons [1]: significant inhibition of the Ih current
percent inhibition of firing rate in VTA DA neurons (VTA DA neurons): 59.7%

COc1cc2c(cc1OC)CC(=O)N(C[C@H]1CCCN(CCOc3ccccc3)C1)CC2 [compound 3]
percent inhibition of Ih currents in VTA DA neurons [1]: less efficacious than Cilobradine

COc1cc2c(cc1OC)CC(=O)N(C[C@H]1CCCN(CCOc3ccccc3F)C1)CC2 [compound 4]
percent inhibition of Ih currents in VTA DA neurons [1]: less efficacious than Cilobradine

COc1ccc(CCN2CCO[C@H](CN3CCc4cc(OC)c(OC)cc4CC3=O)C2)cc1OC [compound 6]
percent inhibition of Ih currents in VTA DA neurons [1]: less efficacious than Cilobradine

COc1ccc(C(F)(F)CN(C)CCCN2CCc3cc(OC)c(OC)cc3CC2=O)cc1OC [compound 8]
percent inhibition of Ih currents in VTA DA neurons [1]: no efficacy

COc1cc2c(cc1OC)CC(=O)N(C[C@H]1CCCN(C(=O)OC(C)(C)C)C1)CC2 [compound 11]
percent inhibition of Ih currents in VTA DA neurons [1]: less than half the efficacy of Cilobradine
